{"source": "ChEMBL document CHEMBL5316381", "about": "“Discovery of [1,2,3]Triazolo[4,5-c]quinoline Derivatives as a New Class of Ataxia-Telangiectasia Mutated Kinase Inhibitors” (ACS Med Chem Lett, 2023)", "key": {"SW-620 [1]": {"test_system": "SW-620", "assay": "Induction of apoptosis in human SW620 cells assessed as early apoptotic cells at 10 nM measured after 72 hrs in presence of CPT-11 by Annexin V-FITC staining based flow cytometric analysis (reference value: 1.06%)", "assay_type": "functional"}, "SW-620 [2]": {"test_system": "SW-620", "assay": "Induction of apoptosis in human SW620 cells assessed as late apoptotic cells at 10 nM measured after 72 hrs in presence of CPT-11 by Annexin V-FITC staining based flow cytometric analysis (reference value: 5.75%)", "assay_type": "functional"}, "SW-620 [3]": {"test_system": "SW-620", "assay": "In vivo inhibition of ATM in BALB/c mouse model xenografted with human SW620 cells assessed as inhibition of ATM phosphorylation at 5 mg/kg, ip administered once daily and measured after 23 days in the presence of CPT-11 by Western blot analysis", "assay_type": "functional, organism-based", "conditions": "time 23.0 day"}, "SW-620 [4]": {"test_system": "SW-620", "assay": "Induction of apoptosis in human SW620 cells assessed as late apoptotic cells at 100 nM measured after 72 hrs by Annexin V-FITC staining based flow cytometric analysis (reference value: 5.75%)", "assay_type": "functional"}, "[5]": {"target": "T1, Serine-protein kinase ATM (Homo sapiens, UniProt Q13315)", "T1 sequence (Q13315 whole entry)": "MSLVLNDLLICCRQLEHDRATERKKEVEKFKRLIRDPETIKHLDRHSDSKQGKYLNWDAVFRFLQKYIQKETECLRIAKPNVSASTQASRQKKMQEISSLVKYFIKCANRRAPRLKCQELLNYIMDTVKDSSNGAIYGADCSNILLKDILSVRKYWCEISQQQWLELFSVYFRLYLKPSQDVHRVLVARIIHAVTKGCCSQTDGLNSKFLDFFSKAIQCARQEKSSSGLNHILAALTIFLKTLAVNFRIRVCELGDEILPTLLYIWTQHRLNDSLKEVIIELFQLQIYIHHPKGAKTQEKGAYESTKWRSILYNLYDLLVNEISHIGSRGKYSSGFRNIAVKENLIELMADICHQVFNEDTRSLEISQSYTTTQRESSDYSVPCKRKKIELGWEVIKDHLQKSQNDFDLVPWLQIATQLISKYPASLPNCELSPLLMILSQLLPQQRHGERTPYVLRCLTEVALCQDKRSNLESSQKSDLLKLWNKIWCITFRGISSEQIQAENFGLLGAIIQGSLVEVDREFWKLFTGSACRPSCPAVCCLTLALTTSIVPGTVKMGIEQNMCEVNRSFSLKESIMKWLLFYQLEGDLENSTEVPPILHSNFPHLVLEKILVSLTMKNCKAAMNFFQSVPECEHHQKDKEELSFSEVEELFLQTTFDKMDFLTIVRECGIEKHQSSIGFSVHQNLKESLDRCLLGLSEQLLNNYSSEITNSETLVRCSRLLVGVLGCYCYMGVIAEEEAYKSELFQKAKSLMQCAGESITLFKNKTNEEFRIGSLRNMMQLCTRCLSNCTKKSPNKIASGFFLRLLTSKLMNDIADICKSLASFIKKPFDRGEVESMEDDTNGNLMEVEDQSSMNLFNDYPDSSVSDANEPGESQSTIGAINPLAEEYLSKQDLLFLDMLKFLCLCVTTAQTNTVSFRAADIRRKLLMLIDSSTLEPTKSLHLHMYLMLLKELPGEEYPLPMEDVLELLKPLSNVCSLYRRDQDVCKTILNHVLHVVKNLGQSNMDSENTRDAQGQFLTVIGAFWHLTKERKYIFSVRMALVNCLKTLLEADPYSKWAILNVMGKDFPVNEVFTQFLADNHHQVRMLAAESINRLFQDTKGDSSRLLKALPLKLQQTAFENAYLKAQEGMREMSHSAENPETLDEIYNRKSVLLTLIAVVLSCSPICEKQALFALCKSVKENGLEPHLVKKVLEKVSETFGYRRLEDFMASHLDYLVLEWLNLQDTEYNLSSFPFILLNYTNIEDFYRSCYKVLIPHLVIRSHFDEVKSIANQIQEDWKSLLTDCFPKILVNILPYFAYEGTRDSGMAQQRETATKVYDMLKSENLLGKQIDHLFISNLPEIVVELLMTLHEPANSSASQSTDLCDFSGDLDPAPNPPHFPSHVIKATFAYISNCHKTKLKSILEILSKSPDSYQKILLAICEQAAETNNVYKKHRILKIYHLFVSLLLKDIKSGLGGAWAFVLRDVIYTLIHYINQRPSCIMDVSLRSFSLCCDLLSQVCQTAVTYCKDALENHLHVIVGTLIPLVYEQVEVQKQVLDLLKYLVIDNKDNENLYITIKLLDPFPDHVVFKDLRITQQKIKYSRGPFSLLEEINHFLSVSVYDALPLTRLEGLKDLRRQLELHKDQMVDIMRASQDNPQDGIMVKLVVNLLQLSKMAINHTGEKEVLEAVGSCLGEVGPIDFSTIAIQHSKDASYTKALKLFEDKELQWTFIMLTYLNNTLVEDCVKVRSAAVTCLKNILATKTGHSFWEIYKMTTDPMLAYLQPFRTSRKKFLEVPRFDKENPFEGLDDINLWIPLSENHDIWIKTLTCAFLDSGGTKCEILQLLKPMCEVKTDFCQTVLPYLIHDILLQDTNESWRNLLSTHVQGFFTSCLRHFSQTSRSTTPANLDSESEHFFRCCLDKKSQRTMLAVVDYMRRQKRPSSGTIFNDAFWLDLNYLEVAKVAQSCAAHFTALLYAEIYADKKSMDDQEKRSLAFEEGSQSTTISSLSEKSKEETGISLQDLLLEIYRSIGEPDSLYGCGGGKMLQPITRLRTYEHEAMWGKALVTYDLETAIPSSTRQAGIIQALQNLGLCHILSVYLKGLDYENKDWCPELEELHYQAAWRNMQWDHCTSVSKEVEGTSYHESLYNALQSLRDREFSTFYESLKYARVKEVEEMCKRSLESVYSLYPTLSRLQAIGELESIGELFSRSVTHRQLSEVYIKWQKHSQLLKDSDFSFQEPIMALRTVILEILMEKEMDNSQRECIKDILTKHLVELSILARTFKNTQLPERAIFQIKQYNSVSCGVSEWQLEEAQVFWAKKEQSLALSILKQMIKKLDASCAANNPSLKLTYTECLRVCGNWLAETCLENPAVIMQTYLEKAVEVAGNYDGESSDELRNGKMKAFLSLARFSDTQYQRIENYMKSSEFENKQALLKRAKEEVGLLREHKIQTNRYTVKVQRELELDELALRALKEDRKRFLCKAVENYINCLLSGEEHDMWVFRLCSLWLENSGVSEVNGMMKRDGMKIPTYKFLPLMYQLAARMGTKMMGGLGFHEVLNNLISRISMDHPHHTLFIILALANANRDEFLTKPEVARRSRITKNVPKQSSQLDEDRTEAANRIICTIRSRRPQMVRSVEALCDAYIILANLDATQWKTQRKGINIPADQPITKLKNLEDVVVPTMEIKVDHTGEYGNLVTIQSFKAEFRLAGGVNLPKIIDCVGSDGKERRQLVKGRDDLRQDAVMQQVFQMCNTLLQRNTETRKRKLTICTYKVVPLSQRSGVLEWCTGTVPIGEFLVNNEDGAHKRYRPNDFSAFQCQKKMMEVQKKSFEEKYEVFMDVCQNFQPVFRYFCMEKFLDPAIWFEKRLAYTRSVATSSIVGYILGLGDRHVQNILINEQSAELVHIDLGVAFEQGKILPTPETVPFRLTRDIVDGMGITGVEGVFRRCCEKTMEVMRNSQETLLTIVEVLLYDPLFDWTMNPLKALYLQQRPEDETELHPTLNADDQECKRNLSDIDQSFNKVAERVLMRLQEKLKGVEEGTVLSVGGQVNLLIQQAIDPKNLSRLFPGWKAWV", "assay": "Inhibition of ATM phosphorylation in human SW620 cells with IR-induced DNA damage in the presence of 3 Gy irradiation by Western blot analysis", "assay_type": "cell-based", "conditions": "dose 3-250 nM"}, "HCT-116 [6]": {"test_system": "HCT-116", "assay": "Induction of apoptosis in human HCT-116 cells assessed as viable cells at 10 nM measured after 72 hrs in presence of CPT-11 by Annexin V-FITC staining based flow cytometric analysis (reference value: 73.74%)", "assay_type": "functional", "conditions": "read-out: Activity"}, "HCT-116 [7]": {"test_system": "HCT-116", "assay": "Cell cycle arrest in human HCT-116 cells assessed as accumulation of cells at G2/M phase incubated for 24 hrs in presence of CPT-11 by PI staining based flow cytometric analysis", "assay_type": "functional", "conditions": "dose 10-100 nM"}, "HCT-116 [8]": {"test_system": "HCT-116", "assay": "Induction of apoptosis in human HCT-116 cells assessed as necrotic cells at 1 uM measured after 72 hrs by Annexin V-FITC staining based flow cytometric analysis (reference value: 2.41%)", "assay_type": "functional"}, "SW-620 [9]": {"test_system": "SW-620", "assay": "Cell cycle arrest in human SW620 cells assessed as accumulation of cells at G2/M phase upto 100 nM incubated for 24 hrs by PI staining based flow cytometric analysis", "assay_type": "functional"}, "HCT-116 [10]": {"test_system": "HCT-116", "assay": "Induction of apoptosis in human HCT-116 cells assessed as necrotic cells at 10 nM measured after 72 hrs in presence of CPT-11 by Annexin V-FITC staining based flow cytometric analysis (reference value: 2.41%)", "assay_type": "functional"}, "[11]": {"target": "T1, Serine-protein kinase ATM", "assay": "Inhibition of ATM in human SW620 cells assessed as increase in gamma H2AX foci at 250 nM incubated for 24 hrs by confocal microscopic analysis", "assay_type": "cell-based"}, "HCT-116 [12]": {"test_system": "HCT-116", "assay": "Induction of apoptosis in human HCT-116 cells assessed as early apoptotic cells at 1 uM measured after 72 hrs by Annexin V-FITC staining based flow cytometric analysis (reference value: 4.06%)", "assay_type": "functional"}, "HCT-116 [13]": {"test_system": "HCT-116", "assay": "Induction of apoptosis in human HCT-116 cells assessed as viable cells at 1 uM measured after 72 hrs by Annexin V-FITC staining based flow cytometric analysis (reference value: 73.74%)", "assay_type": "functional", "conditions": "read-out: Activity"}, "HCT-116 [14]": {"test_system": "HCT-116", "assay": "Induction of apoptosis in human HCT-116 cells assessed as late apoptotic cells at 100 nM measured after 72 hrs by Annexin V-FITC staining based flow cytometric analysis (reference value: 19.80%)", "assay_type": "functional"}, "[15]": {"target": "Serine/threonine-protein kinase Chk2 (Homo sapiens) (UniProt O96017)", "sequence (O96017 whole entry)": "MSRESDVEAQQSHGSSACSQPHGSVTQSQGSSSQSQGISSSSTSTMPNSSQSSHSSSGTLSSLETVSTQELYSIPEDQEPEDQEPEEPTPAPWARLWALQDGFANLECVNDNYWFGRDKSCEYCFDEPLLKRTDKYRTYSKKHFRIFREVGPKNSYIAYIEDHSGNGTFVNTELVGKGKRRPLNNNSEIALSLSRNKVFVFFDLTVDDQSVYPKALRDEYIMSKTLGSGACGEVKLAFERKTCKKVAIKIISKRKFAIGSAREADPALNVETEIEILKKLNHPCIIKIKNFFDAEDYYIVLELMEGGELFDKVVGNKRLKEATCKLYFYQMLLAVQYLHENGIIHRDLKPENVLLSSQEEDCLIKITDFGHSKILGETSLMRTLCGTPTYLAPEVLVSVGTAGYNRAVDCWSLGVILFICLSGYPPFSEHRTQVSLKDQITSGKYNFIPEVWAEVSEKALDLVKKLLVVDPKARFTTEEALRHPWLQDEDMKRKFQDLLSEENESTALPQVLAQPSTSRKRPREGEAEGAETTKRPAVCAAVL", "assay": "Inhibition of Chk2 phosphorylation in human SW620 cells with IR-induced DNA damage in the presence of 1.5 Gy irradiation by Western blot analysis", "assay_type": "cell-based", "conditions": "dose 3-250 nM"}, "HCT-116 [16]": {"test_system": "HCT-116", "assay": "Induction of apoptosis in human HCT-116 cells assessed as viable cells at 100 nM measured after 72 hrs by Annexin V-FITC staining based flow cytometric analysis (reference value: 73.74%)", "assay_type": "functional", "conditions": "read-out: Activity"}, "[17]": {"target": "Serine/threonine-protein kinase ATR (Homo sapiens, UniProt Q13535)", "assay": "Inhibition of ATR (unknown origin) using GST-cMyc-p53 as substrate incubated for 30 mins in the presence of Mg/ATP mix by HTRF-based analysis"}, "[18]": {"target": "Serine/threonine-protein kinase Chk2 (Homo sapiens) (UniProt O96017)", "assay": "Inhibition of Chk2 phosphorylation in human SW620 cells with IR-induced DNA damage in the presence of 3 Gy irradiation by Western blot analysis", "assay_type": "cell-based", "conditions": "dose 3-250 nM"}, "SW-620 [19]": {"test_system": "SW-620", "assay": "Antiproliferative activity against human SW620 cells assessed as reduction in colony formation at 9 nM measured after 14 days by crystal violet staining based microscopic analysis", "assay_type": "functional, cell-based", "conditions": "time 14.0 day"}, "SW-620 [20]": {"test_system": "SW-620", "assay": "Induction of apoptosis in human SW620 cells assessed as viable cells at 30 nM measured after 72 hrs in presence of CPT-11 by Annexin V-FITC staining based flow cytometric analysis (reference value: 87.36%)", "assay_type": "functional", "conditions": "read-out: Activity"}, "SW-620 [21]": {"test_system": "SW-620", "assay": "Radiosensitizing activity against human SW620 cells assessed as reduction in colony formation at 9 nM incubated after 14 days in the presence of 3 Gy irradiation by crystal violet staining based analysis", "assay_type": "functional, cell-based", "conditions": "time 14.0 day"}, "HCT-116 [22]": {"test_system": "HCT-116", "assay": "Induction of apoptosis in human HCT-116 cells assessed as viable cells at 30 nM measured after 72 hrs in presence of CPT-11 by Annexin V-FITC staining based flow cytometric analysis (reference value: 73.74%)", "assay_type": "functional", "conditions": "read-out: Activity"}, "HCT-116 [23]": {"test_system": "HCT-116", "assay": "Induction of apoptosis in human HCT-116 cells assessed as necrotic cells at 100 nM measured after 72 hrs in presence of CPT-11 by Annexin V-FITC staining based flow cytometric analysis (reference value: 2.41%)", "assay_type": "functional"}, "[24]": {"target": "PI3-kinase p110-alpha/p85-alpha (Homo sapiens, UniProt P42336)", "assay": "Inhibition of human PI3K p110 alpha/p85 alpha using phosphatidylinositol-4, 5-bisphosphate as substrate incubated for 30 mins in the presence of Mg/ATP mix by HTRF-based analysis", "assay_type": "protein-complex assay"}, "[25]": {"target": "T2, Serine/threonine-protein kinase Chk1 (Homo sapiens) (UniProt O14757)", "T2 sequence (whole entry)": "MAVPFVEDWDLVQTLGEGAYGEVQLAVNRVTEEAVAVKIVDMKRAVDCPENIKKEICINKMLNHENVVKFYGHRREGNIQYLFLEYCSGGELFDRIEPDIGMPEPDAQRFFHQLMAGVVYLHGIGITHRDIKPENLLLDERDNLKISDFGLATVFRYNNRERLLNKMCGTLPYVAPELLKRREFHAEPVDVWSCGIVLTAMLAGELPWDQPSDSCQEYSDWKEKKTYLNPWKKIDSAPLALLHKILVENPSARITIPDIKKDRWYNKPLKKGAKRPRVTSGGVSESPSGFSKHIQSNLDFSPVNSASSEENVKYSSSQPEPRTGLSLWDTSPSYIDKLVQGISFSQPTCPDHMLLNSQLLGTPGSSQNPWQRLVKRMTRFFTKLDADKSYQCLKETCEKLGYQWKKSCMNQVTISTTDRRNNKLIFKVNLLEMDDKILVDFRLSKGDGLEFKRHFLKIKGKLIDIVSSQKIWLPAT", "assay": "Inhibition of CPT-11 induced Chk1 phosphorylation in human SW620 cells by SDS-PAGE based Westernblot analysis", "assay_type": "cell-based"}, "SW-620 [26]": {"test_system": "SW-620", "assay": "Induction of apoptosis in human SW620 cells assessed as viable cells at 100 nM measured after 72 hrs in presence of CPT-11 by Annexin V-FITC staining based flow cytometric analysis (reference value: 87.36%)", "assay_type": "functional", "conditions": "read-out: Activity"}}, "note": "The source made the active and inactive calls. The rule behind the calls is not given here."}
{"smiles": "C[C@H](c1ccccc1)n1nnc2cnc3ccc(-c4ccc(OCCCN(C)C)nc4)cc3c21", "values": [{"measurement": "Activity", "setting": "SW-620 [1]", "result": 2.76, "unit": "%"}, {"measurement": "Activity", "setting": "SW-620 [2]", "result": 27.19, "unit": "%"}, {"measurement": "inhibition", "setting": "SW-620 [3]", "result": "Active"}, {"measurement": "Activity", "setting": "SW-620 [4]", "result": 11.57, "unit": "%"}, {"measurement": "inhibition", "setting": "[5]", "result": "Dose-Dependent Effect"}, {"measurement": "viability at 0.01 µM", "setting": "HCT-116 [6]", "result": 55.8, "unit": "%"}, {"measurement": "Activity", "setting": "HCT-116 [7]", "result": "Dose-Dependent Effect"}, {"measurement": "Activity", "setting": "HCT-116 [8]", "result": 5.57, "unit": "%"}, {"measurement": "Activity", "setting": "SW-620 [9]", "result": "inactive"}, {"measurement": "Activity", "setting": "HCT-116 [10]", "result": 8.88, "unit": "%"}, {"measurement": "inhibition", "setting": "[11]", "result": "Active"}, {"measurement": "Activity", "setting": "HCT-116 [12]", "result": 1.34, "unit": "%"}, {"measurement": "viability at 1 µM", "setting": "HCT-116 [13]", "result": 62.1, "unit": "%"}, {"measurement": "Activity", "setting": "HCT-116 [14]", "result": 14.21, "unit": "%"}, {"measurement": "inhibition", "setting": "[15]", "result": "Dose-Dependent Effect"}, {"measurement": "viability at 0.1 µM", "setting": "HCT-116 [16]", "result": 75.3, "unit": "%"}, {"measurement": "IC50", "setting": "[17]", "result": "> 10", "unit": "µM"}, {"measurement": "inhibition", "setting": "[18]", "result": "Dose-Dependent Effect"}, {"measurement": "Activity", "setting": "SW-620 [19]", "result": "inactive"}, {"measurement": "viability at 0.03 µM", "setting": "SW-620 [20]", "result": 47.2, "unit": "%"}, {"measurement": "Activity", "setting": "SW-620 [21]", "result": "Active"}, {"measurement": "viability at 0.03 µM", "setting": "HCT-116 [22]", "result": 25.7, "unit": "%"}, {"measurement": "Activity", "setting": "HCT-116 [23]", "result": 7.04, "unit": "%"}, {"measurement": "IC50", "setting": "[24]", "result": "> 10", "unit": "µM"}, {"measurement": "inhibition", "setting": "[25]", "result": "inactive"}, {"measurement": "viability at 0.1 µM", "setting": "SW-620 [26]", "result": 30.5, "unit": "%"}]}
